This is an account of results in patent US5478825A, “5-(substituted amino)-1,2,4-triazolo (1,5-A) pyrimidine derivatives” (Egis Gyogyszergyar, priority 1991, dated 1995).

The test system of assay [1] is coronary artery. Description: Coronary flow test in dog. Type of assay: in vivo. As for the experimental part: 3.b) Coronary flow test in dog
The experiments were carried out in young mongrel do, of both sexes weighing 10-26 kg. The test compounds were administered in 1-5-10 mg/kg doses intravenously. […] Mean arterial blood pressure was recorded on the carotis with a Statham gauge (type: p23Db). The changes of the myocardial contractile forces were followed isometrically with a microdynamometer (type: Experimetria, SG-01) affixed to the anterior wall of the left ventricle. Data were collected on the first derivate of the myocardial contractile force to follow the changes of the contraction and relaxation speed. […] The changes of the heart rate were also followed. The conductivity of the coronary artery (the ratio of the mean coronary flow and the mean blood pressure) was calculated. The mean values were evaluated statistically using Student's test as well as regression analysis and multiple t test.

In assay [2] the test system is right atrium. Briefly: Positive inotropic effect in guinea pig (isolated right atrium). The following applies: for Frequency: percentage change of atrial frequency; for Concentration force dP/dt: percentage change, 2 Hz, 37° C., concentration not given. As for the experimental part:
2. Positive inotropic effect in guinea pig
The experiments were carried out by the method of Alousi [Alousi, A. A. et al.: J. Cardiovasc. […] Animals weighing 400-600 g were stunned with a blow to the head and exsanguinated. The heart was excised and the right atrium was removed and placed into a modified Tyrode solution of 37° C. It was then preloaded with 2.1 g and stimulated electrically at a rate of 2 Hz by rectangular pulses 0.5 ms in duration. The first derivative by time of the contraction force of the isolated organ (dP/dt) and the atrial frequency were recorded by a polygraph. From the data thus obtained percentage changes were calculated.

Assay [3] relates to anaesthetized cat, left ventricular pressure (dP/dtmax). Briefly: Positive inotropic effect in anaesthetized cat. Type of assay: in vivo. To be noted: Felis catus, iv; for change in vivo at 1 mg/kg: 1 mg/kg i.v.; for change in vivo at 5 mg/kg: 5 mg/kg i.v.; for change in vivo at 10 mg/kg: 10 mg/kg i.v. How it is done: 1. Positive inotropic effect in anaesthetized cat
The experiments were carried out on male and female cats anaesthetized with chloralose-urethane (40/300 mg/kg i.p. in a volume of 1 ml/kg). A polyethylene catheter was inserted into the left ventricle via the right subclavian artery. The inotropic activity was measured with the aid of the first derivative by time of the left ventricular pressure curve (dP/dtmax). The blood pressure was measured by means of another catheter introduced from the left femoral artery into the upper third part of the abdominal artery. A Statham P23Db transducer and HSE (Hugo Sachs Electronics) amplifiers were used for both pressure measurements. […] The test compounds were administered via a femoral venous cannula.

Each structure is given as a SMILES string.

`CSc1nc2nc3c(c(NCCN4CCOCC4)n2n1)CCCCC3` [Example 37, 2-(Methylthio)-5-[N-(2-morpholinoethyl)]amino-6,7,8,9-tetrahydro-10H-cyclohepta[d]-1,2,4-triazolo[1,5-a]pyrimidine]: the “Conductivity of the coronary artery” value in assay [1] (1 mg/kg i.v.) is listed as 188%; in assay [1] (5 mg/kg i.v.), 371%; in assay [1] (10 mg/kg i.v.), 780%.

For `CSc1nc2nc3c(c(NCCCN4CCOCC4)n2n1)CCCC3` [Example 19, 2-(Methylthio)-5-[N-(3-morpholinopropyl)]amino-6,7,8,9-tetrahydro-1,2,4-triazolo[5,1-b]quinazoline], in assay [2], the Frequency is listed as -2% and the “Concentration force dP/dt” value is 171%. Besides, in assay [3], the change in vivo at 1 mg/kg came to 35%, the change in vivo at 5 mg/kg is 72.8% and the change in vivo at 10 mg/kg was 90.6%.

Take `CSc1nc2nc3c(c(NCCN4CCOCC4)n2n1)CCN(Cc1ccccc1)C3` [Example 46, 8-Benzyl-2-(methylthio)-5-[N-(2-morpholinoethyl)]amino-6,7,8,9-tetrahydropyrido[3,4-d]-1,2,4-triazolo[1,5-a]pyrimidine]: in assay [2], the Frequency is on record as -15% and the “Concentration force dP/dt” value was 80%.

As to `Nc1cc(-c2ccncc2)c[nH]c1=O` [Amrinone, reference compound], in assay [2], the Frequency is 28% and the “Concentration force dP/dt” value came out at 33%. Moreover, in assay [3], the change in vivo at 1 mg/kg worked out at 19%, the change in vivo at 5 mg/kg amounted to 53.9% and the change in vivo at 10 mg/kg came to 48.3%.

In assay [3], `CCSc1nc2nc3c(c(NCCN4CCOCC4)n2n1)CCCC3` [Example 31, 2-(Ethylthio)-5-[N-(2-morpholinoethyl)]amino-6,7,8,9-tetrahydro-1,2,4-triazolo[5,1-b]quinazoline] gave a change in vivo at 1 mg/kg of 46.5%, a change in vivo at 5 mg/kg of 131% and a change in vivo at 10 mg/kg of 129%.

On to `CC(C)Sc1nc2nc3c(c(NCCCN4CCOCC4)n2n1)CCCC3` [Example 30, 2-(1-Methylethylthio)-5-[N-(3-morpholinopropyl)]amino-6,7,8,9-tetrahydro-1,2,4-triazolo[5,1-b]quinazoline], for which the “Conductivity of the coronary artery” value in assay [1] (1 mg/kg i.v.) is 166%. The “Conductivity of the coronary artery” value in assay [1] (5 mg/kg i.v.) amounted to 397%. In addition, the “Conductivity of the coronary artery” value in assay [1] (10 mg/kg i.v.) was determined as 481%. Also, in assay [3], the change in vivo at 1 mg/kg came to 22.3%, the change in vivo at 5 mg/kg turned out to be 53.8% and the change in vivo at 10 mg/kg worked out at 86.8%.

As for `CSc1nc2nc3c(c(NCCN4CCOCC4)n2n1)SCCC3` [Example 39, 2-(Methylthio)-5-[N-(2-morpholinoethyl)]amino-7,8-dihydro-9H-thiopyrano[3,2-d]-1,2,4-triazolo[1,5-a]pyrimidine], in assay [2], the Frequency was -12% and the “Concentration force dP/dt” value is recorded as 51%.

In turn, `CN(C)c1nc2nc3c(c(NCCCN4CCOCC4)n2n1)SCCC3` [Example 53, 2-(Dimethylamino)-5-[N-(3-morpholinopropyl)]amino7,8-dihydro-9H-thiopyrano[3,2-d]-1,2,4-triazolo[1,5-a]pyrimidine] had a change in vivo at 0.5 mg/kg in assay [3] (0.5 mg/kg i.v.) of 35.5%. Further, in assay [3], the change in vivo at 1 mg/kg is 48%, the change in vivo at 5 mg/kg worked out at 95% and the change in vivo at 10 mg/kg came to 93.6%.

On to `CSc1nc2nc3c(c(N4CCOCC4)n2n1)CCC3` [Example 8, 2-(Methylthio)-5-morpholino-6,7-dihydro-8H-cyclopenta[d]-1,2,4-triazolo[1,5-a]pyrimidine], for which, in assay [2], the Frequency was -5% and the “Concentration force dP/dt” value stood at 86%. In assay [3], this molecule registered a change in vivo at 1 mg/kg of 42.8%, a change in vivo at 5 mg/kg of 76% and a change in vivo at 10 mg/kg of 86.3%.
